These results are taken from patent US20250188040A1, “PHARMACEUTICAL COMPOSITIONS COMPRISING WRN HELICASE INHIBITORS” (Vividion Therapeutics, Inc., priority 2022, published 2025).

Read-outs that look alike come from different tables or passages of the source.

In experiment [1] the test system is HCT 116 cells. Put plainly: Cell growth assay (CellTiter-Glo 2.0), HCT 116 MSI-H cell line. Particulars: Homo sapiens, HCT-116, 120 h, read-out: Cell Growth Inhibition GI50 HCT-116.
Protocol: (§1) The effects of compound on cellular viability were determined using the CellTiter-Glo® 2.0 Luminescent Cell Viability Assay (Promega, Madison, WI).
(§2) SW480 cells were seeded at 1,000 cells per well in Eagle's Minimum Essential Medium (EMEM) with 10% FBS. Both cell lines were seeded in a volume of 50 μL medium per well. […] The concentration range was adjusted as needed for compounds of different potencies. The cells treated with compounds were incubated for 5 days at 37° C. in 5% CO2. […] The plate was then read on a Clariostar plate reader (BMG Labtech, Cary, NC) in luminescence mode. The previously measured baseline cell viability was subtracted from the luminescence value of each well, and cell viability (% of DMSO) was plotted as a function of log compound concentration. The EC50 was then calculated for each compound using Dotmatics Software (San Diego, CA).
Experiment [2] has as its system SW480 cells. Put plainly: Cell growth assay (CellTiter-Glo 2.0), SW480 MSS cell line. Particulars: Homo sapiens, SW480, 120 h, read-out: Cell Growth Inhibition GI50 SW480.
Protocol: as §1, §2
Experiment [3] addresses hWRN(519-1227)_C-H3CV-GFP-10His (Homo sapiens, UniProt Q14191). Put plainly: Helicase Assay for WRN Inhibition (ATP-dependent, fluorescence based).
Protocol: Effects of compounds on WRN helicase activity were assessed with the Helicase Assay for WRN Inhibition. This is an ATP-dependent (inclusion of ATP is important and is required for this assay) fluorescence based assay using recombinant WRN and a fluorogenic DNA substrate.
WRN activity was normalized to signal from wells without WRN protein (background, 0% activity) and wells with protein treated only with DMSO (positive control, 10000 activity). For each compound the potency of inhibition (IC50) was determiined using Graphpad Prism.
For experiment [4], the target named is T1, WRN C727 (Homo sapiens, UniProt Q14191).
T1 construct: endogenous in cells; host or cells: OCI-AML2
T1 sequence (Q14191 whole entry): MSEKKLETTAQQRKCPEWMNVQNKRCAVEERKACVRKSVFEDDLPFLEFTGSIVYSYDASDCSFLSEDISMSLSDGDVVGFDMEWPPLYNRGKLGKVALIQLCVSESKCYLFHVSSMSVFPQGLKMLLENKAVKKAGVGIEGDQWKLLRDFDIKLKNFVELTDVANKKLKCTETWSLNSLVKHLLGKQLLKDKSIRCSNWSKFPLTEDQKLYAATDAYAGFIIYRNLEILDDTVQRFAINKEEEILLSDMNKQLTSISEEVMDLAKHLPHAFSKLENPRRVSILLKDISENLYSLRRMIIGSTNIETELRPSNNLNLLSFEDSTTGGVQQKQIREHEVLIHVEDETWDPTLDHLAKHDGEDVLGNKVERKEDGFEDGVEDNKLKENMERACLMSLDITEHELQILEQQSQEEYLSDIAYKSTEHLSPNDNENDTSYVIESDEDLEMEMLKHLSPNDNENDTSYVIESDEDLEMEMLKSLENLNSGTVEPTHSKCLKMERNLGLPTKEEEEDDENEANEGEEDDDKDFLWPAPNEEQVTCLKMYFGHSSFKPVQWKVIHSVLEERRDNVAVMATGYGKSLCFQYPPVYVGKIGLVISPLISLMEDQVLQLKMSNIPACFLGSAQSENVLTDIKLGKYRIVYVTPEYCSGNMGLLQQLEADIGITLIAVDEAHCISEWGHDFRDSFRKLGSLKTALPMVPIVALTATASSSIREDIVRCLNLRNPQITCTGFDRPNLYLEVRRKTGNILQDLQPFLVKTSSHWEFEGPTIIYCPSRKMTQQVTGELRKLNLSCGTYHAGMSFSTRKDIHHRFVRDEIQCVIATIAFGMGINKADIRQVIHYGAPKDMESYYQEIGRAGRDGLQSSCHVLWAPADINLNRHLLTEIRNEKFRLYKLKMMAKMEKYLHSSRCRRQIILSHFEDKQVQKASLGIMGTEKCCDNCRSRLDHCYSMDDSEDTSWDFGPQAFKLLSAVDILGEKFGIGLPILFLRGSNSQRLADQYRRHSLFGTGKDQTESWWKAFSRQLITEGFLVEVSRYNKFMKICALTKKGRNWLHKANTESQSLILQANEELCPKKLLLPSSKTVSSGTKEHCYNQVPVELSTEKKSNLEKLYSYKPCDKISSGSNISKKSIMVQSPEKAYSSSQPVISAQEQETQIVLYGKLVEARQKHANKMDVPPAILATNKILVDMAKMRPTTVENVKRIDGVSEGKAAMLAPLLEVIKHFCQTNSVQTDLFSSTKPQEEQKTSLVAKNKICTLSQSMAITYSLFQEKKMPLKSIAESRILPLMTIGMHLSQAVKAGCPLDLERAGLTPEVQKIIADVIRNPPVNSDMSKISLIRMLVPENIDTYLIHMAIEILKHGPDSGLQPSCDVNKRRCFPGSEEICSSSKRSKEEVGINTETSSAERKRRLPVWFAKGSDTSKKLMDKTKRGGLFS
Put plainly: Target engagement, in vitro (lysate), OCI-AML2. The class given is binding. Particulars: read-out: OCI-AML2 WRN C727 TE50 in vitro (lysate). In a few lines: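 OCI-AML2 intact cells or lysates dosed with compound, then a cysteine-reactive probe; after trypsin digestion, probe-labelled peptides were streptavidin-enriched and quantified by nano-LC parallel reaction monitoring MS. Engagement (%) relative to DMSO controls.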

Where [5] appears, read: WRN Helicase IC50, 30 min preincubation with ATP, 30 min reaction.

Sequence of hWRN(519-1227)_C-H3CV-GFP-10His (Q14191 519-1227): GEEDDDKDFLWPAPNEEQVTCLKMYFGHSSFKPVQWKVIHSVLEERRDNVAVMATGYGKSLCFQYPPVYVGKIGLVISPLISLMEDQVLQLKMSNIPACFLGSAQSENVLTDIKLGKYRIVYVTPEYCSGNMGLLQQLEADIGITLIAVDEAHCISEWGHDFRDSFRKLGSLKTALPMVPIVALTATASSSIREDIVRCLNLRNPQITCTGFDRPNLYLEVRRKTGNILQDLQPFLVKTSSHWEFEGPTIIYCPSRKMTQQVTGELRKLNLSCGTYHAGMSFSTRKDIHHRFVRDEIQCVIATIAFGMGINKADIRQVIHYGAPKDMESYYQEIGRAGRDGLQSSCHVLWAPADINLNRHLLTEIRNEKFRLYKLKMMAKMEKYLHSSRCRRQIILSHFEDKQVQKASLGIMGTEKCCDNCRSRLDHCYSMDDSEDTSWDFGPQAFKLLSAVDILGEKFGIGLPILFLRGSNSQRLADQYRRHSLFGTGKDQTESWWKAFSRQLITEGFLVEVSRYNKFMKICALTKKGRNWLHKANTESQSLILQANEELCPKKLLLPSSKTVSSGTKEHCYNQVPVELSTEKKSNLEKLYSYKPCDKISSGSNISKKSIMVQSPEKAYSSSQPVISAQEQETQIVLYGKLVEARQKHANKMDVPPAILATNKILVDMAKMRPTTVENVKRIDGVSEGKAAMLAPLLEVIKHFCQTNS

Consider `CS(=O)(=O)/C=C1/CCN(C(=O)c2cnc(C3CC3)nc2Oc2ccccc2)C1` [Example 26, (2-cyclopropyl-4-phenoxy-pyrimidin-5-yl)-[(3Z)-3-(methylsulfonylmethylene)pyrrolidin-1-yl]methanone], for which the concentration for 50% growth inhibition (GI50) in experiment [1] came to 18 µM; in experiment [2], 54 µM. In addition, the results for the IC50 in experiment [3] and in experiment [4] were 103 µM and greater than 100 µM, respectively.

Take `C[C@@H](/C=C/S(C)(=O)=O)NC(=O)c1cc2c(cc1Oc1ccccc1)CCC2=O` [Example 247, (S,E)-N-(4-(methylsulfonyl)but-3-en-2-yl)-3-oxo-6-phenoxy-2,3-dihydro-1H-indene-5-carboxamide]: the GI50 in experiment [1] was 6.5 µM; in experiment [2], greater than 10 µM. Moreover, the IC50 came to 8.5 µM in experiment [3] and 30 µM in experiment [4].

For `CC(C)[C@@H](/C=C/S(C)(=O)=O)NC(=O)c1cnc(C2CCCC2)nc1Oc1ccccc1` [Example 7, (S,E)-2-cyclopentyl-N-(4-methyl-1-(methylsulfonyl)pent-1-en-3-yl)-4-phenoxypyrimidine-5-carboxamide], the figures for the 50% growth inhibitory concentration (GI50) in experiment [1] and in experiment [2] were 1.16 µM and greater than 19.5 µM, respectively. Moreover, the IC50 in experiment [3] (setting [5]) worked out at 2.7 µM; in experiment [4], 14 µM.

Regarding `CS(=O)(=O)/C=C/[C@@H](NC(=O)c1cnc(C(F)(F)F)nc1Oc1ccccc1)C1CC1` [Example 82, (S,E)-N-(1-cyclopropyl-3-(methylsulfonyl)allyl)-4-phenoxy-2-(trifluoromethyl)pyrimidine-5-carboxamide], the GI50 in experiment [1] came to 0.28 µM; in experiment [2], 20 µM. Also, the IC50 came to 0.55 µM in experiment [3] (setting [5]) and 0.7 µM in experiment [4].

For the compound `C[C@@H](/C=C/S(C)(=O)=O)NC(=O)c1cnc(N2CCC[C@@H]2C)nc1Oc1ccccc1` [Example 175, 2-((S)-2-methylpyrrolidin-1-yl)-N—((S,E)-4-(methylsulfonyl)but-3-en-2-yl)-4-phenoxypyrimidine-5-carboxamide], the results for the GI50 in experiment [1] and in experiment [2] were 2.2 µM and 12 µM, respectively. Besides, the figures for the IC50 in experiment [3] (setting [5]) and in experiment [4] were 6.8 µM and 20 µM, respectively.

For `CS(=O)(=O)/C=C/[C@@H](NC(=O)c1cnc(C(F)C2CC2)nc1Oc1ccccc1)C1CC1` (stereo partly drawn) [Example 37, N—((S,E)-1-cyclopropyl-3-(methylsulfonyl)allyl)-2-(cyclopropylfluoromethyl)-4-phenoxypyrimidine-5-carboxamide], the GI50 in experiment [1] came to 0.0359 µM; in experiment [2] it was 28.6 µM. Besides, the IC50 in experiment [3] (setting [5]) turned out to be 0.24 µM; in experiment [4], 0.45 µM.

With `C[C@@H](/C=C/S(C)(=O)=O)NC(=O)c1cnc(N2CCCC2(C)C)nc1Oc1ccccc1` [Example 174, (S,E)-2-(2,2-dimethylpyrrolidin-1-yl)-N-(4-(methylsulfonyl)but-3-en-2-yl)-4-phenoxypyrimidine-5-carboxamide], the GI50 was 2.2 µM in experiment [1] and 11 µM in experiment [2]. In addition, the IC50 was found to be 6.8 µM in experiment [3] (setting [5]) and 11.2 µM in experiment [4].

Take `C[C@@H](/C=C/S(C)(=O)=O)NC(=O)c1cnc(C2=CCCC2)cc1Oc1ccccc1` [Example 200, (S,E)-6-(cyclopent-1-en-1-yl)-N-(4-(methylsulfonyl)but-3-en-2-yl)-4-phenoxynicotinamide]: the concentration for 50% growth inhibition (GI50) in experiment [1] was 3.6 µM; in experiment [2] it was greater than 10 µM. Also, the IC50 in experiment [3] (setting [5]) amounted to 4.5 µM; in experiment [4], 21.7 µM.

As for `CS(=O)(=O)/C=C/[C@@H](NC(=O)c1cnc(C2CC2)nc1Oc1ccccc1)C1CCC1` [Example 29, (S,E)-N-(1-cyclobutyl-3-(methylsulfonyl)allyl)-2-cyclopropyl-4-phenoxypyrimidine-5-carboxamide], the 50% growth inhibitory concentration (GI50) stood at 0.165 µM in experiment [1] and 37.4 µM in experiment [2]. The IC50 in experiment [3] (setting [5]) was 0.645 µM; in experiment [4], 1.68 µM.

Regarding `CSC[C@@H](/C=C/S(C)(=O)=O)NC(=O)c1cnc(C2CC2)nc1Oc1ccccc1` [Example 31, (R,E)-2-cyclopropyl-N-(4-(methylsulfonyl)-1-(methylthio)but-3-en-2-yl)-4-phenoxypyrimidine-5-carboxamide], the GI50 in experiment [1] was 0.63 µM; in experiment [2], 28 µM. For the same compound, the IC50 was determined as 0.88 µM in experiment [3] (setting [5]) and 3.24 µM in experiment [4].

For the compound `C[C@@H](/C=C/S(C)(=O)=O)NC(=O)c1cnc(C23CC(C2)C3)nc1Oc1ccccc1` [Example 222, (S,E)-2-(bicyclo[1.1.1]pentan-1-yl)-N-(4-(methylsulfonyl)but-3-en-2-yl)-4-phenoxypyrimidine-5-carboxamide], the GI50 in experiment [1] was 0.133 µM; in experiment [2] it was greater than 15 µM. The IC50 turned out to be 0.444 µM in experiment [3] (setting [5]) and 1.3 µM in experiment [4].

In the case of `CC(F)(F)c1ccc(C(=O)N[C@H](/C=C/S(C)(=O)=O)C2CC2)c(Oc2ccccc2)n1` [Example 233, (S,E)-N-(1-cyclopropyl-3-(methylsulfonyl)allyl)-6-(1,1-difluoroethyl)-2-phenoxynicotinamide], the GI50 was 0.0199 µM in experiment [1] and 17 µM in experiment [2]. The IC50 in experiment [3] (setting [5]) stood at 0.072 µM; in experiment [4], 0.48 µM.

As for `CSC[C@@H](/C=C/S(C)(=O)=O)NC(=O)c1cnc(C(C)(C)C)nc1Oc1ccccc1` [Example 68, (R,E)-2-(tert-butyl)-N-(4-(methylsulfonyl)-1-(methylthio)but-3-en-2-yl)-4-phenoxypyrimidine-5-carboxamide], the results for the GI50 in experiment [1] and in experiment [2] were 0.23 µM and 31.4 µM, respectively. For the same compound, the IC50 is 0.18 µM in experiment [3] (setting [5]) and 1 µM in experiment [4].

In the case of `C[C@@H](/C=C/S(C)(=O)=O)NC(=O)c1cnc(C2(C(F)(F)F)CC2)nc1Oc1ccccc1` [Example 101, (S,E)-N-(4-(methylsulfonyl)but-3-en-2-yl)-4-phenoxy-2-(1-(trifluoromethyl)cyclopropyl)pyrimidine-5-carboxamide], the figures for the GI50 in experiment [1] and in experiment [2] were 0.374 µM and 7.86 µM, respectively. The IC50 turned out to be 1.1 µM in experiment [3] (setting [5]) and 6.03 µM in experiment [4].

As for `CS(=O)(=O)/C=C/[C@@H](NC(=O)c1cnc(N2CCC2)nc1Oc1ccccc1)C1CC1` [Example 181, (S,E)-2-(azetidin-1-yl)-N-(1-cyclopropyl-3-(methylsulfonyl)allyl)-4-phenoxypyrimidine-5-carboxamide], the values for the GI50 in experiment [1] and in experiment [2] were 0.0884 µM and 17 µM, respectively. In addition, the IC50 came out at 0.87 µM in experiment [3] (setting [5]) and 27.2 µM in experiment [4].

Regarding `C[C@@H](/C=C/S(C)(=O)=O)NC(=O)c1ccc(C2=CCCC2)nc1Oc1ccccc1` [Example 202, (S,E)-6-(cyclopent-1-en-1-yl)-N-(4-(methylsulfonyl)but-3-en-2-yl)-2-phenoxynicotinamide], the GI50 in experiment [1] is 7.2 µM; in experiment [2], greater than 10 µM. Further, the IC50 in experiment [3] (setting [5]) is 8.6 µM; in experiment [4], 75 µM.

For the compound `C[C@@H](/C=C/S(C)(=O)=O)NC(=O)c1cnc(C2CC(F)(F)C2)nc1Oc1ccccc1` [Example 103, (S,E)-2-(3,3-difluorocyclobutyl)-N-(4-(methylsulfonyl)but-3-en-2-yl)-4-phenoxypyrimidine-5-carboxamide], the GI50 in experiment [1] is 0.359 µM; in experiment [2], 20.4 µM. Also, the IC50 in experiment [3] (setting [5]) is 1.5 µM; in experiment [4] it was 3.43 µM.
